Source: patent US6497872B1, “Neural transplantation using proliferated multipotent neural stem cells and their progeny” (NeuroSpheres Holdings Ltd., priority 1991, dated 2002)

Experiments:
Format in all cases: cell-based, mouse
[1] = tested on: EGF-generated neurospheres; assay: Effect of growth factors on neurosphere differentiation, immunocytochemistry (Example 8); settings: 20 ng/ml
Description: Six to 8 days after the first passage, the neurospheres were removed and centrifuged at 400 r.p.m. The EGF-containing supernatant was removed and the pellet suspended in EGF-free complete medium containing 1% FBS. Neurospheres (approximately 0.5-1.0×10^6 cells/well) were plated on poly-L-ornithine-coated (15 μg/ml) glass coverslips in 24 well Nuclon (1.0 ml/well) culture dishes. After 24 hours in culture, the coverslips were transferred to 12 well (Costar) culture dishes containing complete medium containing 0.5% FBS. The medium was changed every 4-7 days. This differentiation procedure is referred to as the “Rapid Differentiation Paradigm” or RDP.
Six to 8 days after the first passage, the neurospheres were removed and centrifuged at 400 r.p.m. The EGF-containing media was removed and the pellet was suspended in EGF-free complete medium containing 1% FBS. The neurospheres were mechanically dissociated into single cells with a fire-polished Pasteur pipette and centrifuged at 800 r.p.m. for 5 minutes. Between 0.5×10^6 and 1.0×10^6 cells were plated on poly-L-ornithine-coated (15 μg/ml) glass coverslips in 24 well Nuclon (1.0 ml/well) culture dishes. The EGF-free culture medium containing 1% FBS was changed every 4-7 days.
Neurospheres were washed free of EGF by serial transfers through changes of EGF-free medium. A single neurosphere was plated onto poly-L-ornithine-coated (15 μg/ml) glass coverslips in a 24-well plate. The culture medium used was complete medium with or without I % FBS. The medium was changed every 4-7 days.
Neurospheres were washed free of EGF by serial transfers through changes of EGF-free medium. A single neurosphere was mechanically dissociated in a 0.5 ml Eppendorf centrifuge tube and all the cells were plated onto a 35 mm culture dish. Complete medium was used with or without 1% FBS.
The effects of CNTF, FGF-2, BDNF, and retinoic acid on neurosphere differentiation were tested using the differentiation paradigms set forth in Example 7.
The effect of CNTF was assayed in paradigms 1 and 3. For both paradigms, CNTF was added either at the beginning of the experiment at a concentration of 10 ng/ml or daily at a concentration of 1 ng/ml.
Three different antibodies directed against 04, galactocerebroside (GalC) and MBP were used to study the effect of CNTF on the oligodendrocytes of paradigm 1. CNTF had no effect on the number of 04(+) cells, but there was an increase in the number of GalC(+) and MBP(+) cells compared with the control. Thus it appears that CNTF plays a role in the maturation of oligodendrocytes.
The effect of FGF-2 was tested using paradigms 2 and 4. In paradigm 2, 20 ng/ml of FGF-2 was added at the beginning of the experiment and cells were stained 7 days later. FGF-2 increased the number of GFAP(+) cells and the number of NSE(+) cells.
In paradigm 4, 20 ng/ml of FGF-2 was added at the beginning of the experiment and assayed 7-10 days later. […] It induced two different cell types to divide, neuroblasts and bipotential progenitor cells. The neuroblast produced, on average, 6 neurons while the bipotential cell produced approximately 6 neurons and a number of astrocytes.

[2] = tested on: Striatal cells (E14); assay: FGF-2 priming of low-density striatal cells before EGF (Example 8); settings: primed with 20 ng/ml FGF-2 for 11 DIV, then 20 ng/ml EGF 4-5 DIV; 2500 cell/cm^2
Description: Striatal cells (E14, 2500 cell/cm^2) were plated in the absence or presence of 20 ng/ml of FGF-2. After 11 DIV, cultures were washed and medium containing 20 ng/ml of EGF was added. After 4-5 DIV, in cultures that were primed with FGF-2, greater than 70% of the wells examined contained clusters of proliferating cells that developed into colonies with the morphologic and antigenic properties of the EGF-generated cells.

[3] = tested on: Primary striatal cells; assay: Striatum-derived neurosphere proliferation in response to proliferative and regulatory factors (Example 43, Paradigm 1)
Description: Paradigm 1: Primary striatal cells prepared as outlined in Example 1 were suspended in Complete Medium, without growth factors, plated in 96 well plates (Nunclon) and incubated as described in Example 4. Following a one hour incubation period, a specific proliferative factor, or a combination of proliferative factors including EGF, or bFGF (recombinant human bFGF: R & D Systems), or a combination of EGF and bFGF, or EGF plus FGF plus heparan sulfate (Sigma), or bFGF plus heparan sulfate made up in Complete Medium at a concentration of 20 ng/ml for each of the growth factors and 2 μg/ml for heparan sulfate), was added to each well of the plate.
Retinoic acid (Sigma) was added at a concentration of 10^−6 M. 10 μl of one of these regulatory factor-containing solutions was added to each proliferative factor-containing well of the 96 well plates. Control wells, containing only proliferative factors, were also prepared. […]
IL-2, IL-6, IL-8, MIP-1∂, MIP-1β, MIP-2, TNFα and EGF additions were repeated every second day, CNTF which was added each day and retinoic acid, NGF and PDGF were added only once, at the beginning of the experiment. The cells were incubated for a period of 10-12 days. The number of neurospheres in each well was counted and the resulting counts tabulated using Cricket Graph III. Other relevant information regarding sphere size and shape were also noted.

[4] = paradigm 2, stained 7 days later

bFGF: basic fibroblast growth factor, recombinant human (R & D Systems)
number of GFAP(+) cells [1, 4]: increased | number of NSE(+) cells [1, 4]: increased | neurons produced per bipotential cell ([1]; paradigm 4): approximately 6 neurons | neurons produced per neuroblast, on average ([1]; paradigm 4): 6 neurons | proliferation of neural stem cell progeny generated by the EGF-responsive stem cell ([1]; paradigm 4, 7-10 days): induced the proliferation | wells containing clusters of proliferating cells [2]: greater than 70% | size of neurospheres relative to those generated in the presence of EGF ([3]; bFGF alone): about 20% | neurospheres generated per well ([3]; proliferative factor alone, 20 ng/ml): approximately 70 neurospheres per well
